T1: CD79B protein on the surface of DoHH2 cells (Homo sapiens, UniProt P40259)
T1 construct: endogenous in cells; host or cells: DoHH2 (DOHH-2) cells
T1 sequence (P40259 29-229): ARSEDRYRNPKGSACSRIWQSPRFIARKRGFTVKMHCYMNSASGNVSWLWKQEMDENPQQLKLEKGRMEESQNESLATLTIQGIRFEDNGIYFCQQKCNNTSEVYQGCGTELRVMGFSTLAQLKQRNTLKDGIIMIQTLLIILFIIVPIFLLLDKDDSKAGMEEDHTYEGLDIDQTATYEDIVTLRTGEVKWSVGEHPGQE
T1 sequence (P11912 33-226 partner): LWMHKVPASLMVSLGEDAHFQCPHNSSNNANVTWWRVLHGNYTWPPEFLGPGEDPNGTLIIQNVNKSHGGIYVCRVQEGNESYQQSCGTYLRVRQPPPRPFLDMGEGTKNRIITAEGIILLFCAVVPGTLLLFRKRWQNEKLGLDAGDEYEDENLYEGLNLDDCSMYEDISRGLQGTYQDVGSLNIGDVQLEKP

T2: human CD79B (Homo sapiens, UniProt P40259)
T2 sequence (P40259 29-159 limits assumed): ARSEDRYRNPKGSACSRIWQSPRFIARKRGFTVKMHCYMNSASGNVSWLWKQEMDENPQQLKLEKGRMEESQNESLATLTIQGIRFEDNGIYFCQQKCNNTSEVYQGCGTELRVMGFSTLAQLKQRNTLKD


How the values were obtained:
SKBR3 = experiment: Test Example 2 in vitro cytotoxic activity (CTG), SKBR3; assay type: cell-based; details: SKBR3, 5 days; for IC50: Homo sapiens, SK-BR-3, 120 h
Description: (§1) In this experiment, the ATP content was determined using CTG to reflect the survival condition of the tumor cells.
(§2) Each of A549, SKBR3 and MDA-MB-468 was digested with pancreatin, resuspended in a culture medium and counted, and the cell density was adjusted to 2.2×10^4 cells/mL. 135 μL of cell suspension was added to each well in columns 2 to 11 of a 96-well plate, and column 12 was set as blank control. The cells were cultured in an incubator at 37° C. with 5% CO2 for 24 h.
(§3) a) Stock solution preparation: the drug was dissolved in DMSO to obtain a stock solution at a concentration of 5 mM.
(§4) b) Plate 1: stock solution in column 1 was initially subjected to a 40-fold dilution, and 3-fold gradient dilutions were performed sequentially in columns 2 to 11. Column 12 was filled with DMSO.
(§5) c) Plate 2: 196 μL of the corresponding culture medium was added to columns 2 to 11, and 4 μL of culture medium was pipetted from columns 3 to 12 of the plate 1 to columns 2 to 11 of the plate 2. The culture medium was mixed well.
(§6) 15 μL of culture medium was pipetted from the plate 2 and added to the cells. The cells were continuously cultured in an incubator at 37° C. with 5% C02 for 5 days.
(§7) 2.4. CTG assay: the plate was taken out and allowed to equilibrate to room temperature. 75 μL of CTG was added to each well and reacted at room temperature for 10 min away from the light. The luminescence value was read using a microplate reader and IC50 was calculated. 2.5. Data Results

MDA-MB-468 = experiment: Test Example 2 in vitro cytotoxic activity (CTG), MDA-MB-468; assay type: cell-based; details: MDA-MB-468, 5 days; for IC50: Homo sapiens, 120 h
Description: as §1, §2, §3, §4, §5, §6, §7

A549 = experiment: Test Example 2 in vitro cytotoxic activity (CTG), A549; assay type: cell-based; details: A549, 5 days; for IC50: Homo sapiens, 120 h
Description: as §1, §2, §3, §4, §5, §6, §7

[1] = tested on: DOHH-2 cells highly expressing human CD79B protein; experiment: Endocytosis of anti-CD79B antibodies in DOHH-2 cells; assay type: cell-based
Description: In order to determine whether the CD79B antibodies of the present disclosure can be endocytosed into cells with human CD79B after binding to human CD79B, a cell endocytosis experiment was performed with DOHH-2 cells (DSMZ, ACC 47) highly expressing human CD79B protein to assess the endocytosis ability of the antibodies.
The cells were collected by low temperature centrifugation at 4° C. for 5 min at 1000 rpm during the experiment. The cells were resuspended in 10-15 mL of FACS buffer pre-cooled on ice. The FACS buffer was composed of phosphate buffered saline (PBS), pH 7.4, with 2% fetal bovine serum (FBS). Throughout the experiment, FACS buffer was pre-cooled on ice. The cells were counted and centrifuged, and added to a 96-well plate at 300,000 cells/well. After centrifugation, the supernatant was discarded, and 12.5 μg/mL Fc blocking solution (BD, Cat No.: 564220) was added at 100 μL/well. Blocking was performed at room temperature for 10 min. Then, 20 μg/mL test CD79B antibody was added to the corresponding wells, and the plate was incubated at 4° C. for 1 h away from the light. The plate was washed twice with a pre-cooled PBS buffer to remove unbound antibodies. A complete cell culture medium (RPMI 1640 medium with 10% fetal bovine serum) was added, and the plate was incubated at 37° C. with 5% CO2 for 0 h, 1 h, 2 h and 4 h. After centrifugation, the supernatant was discarded, 2% PFA buffer solution was added at 100 μL/well to resuspend the cells, and the plate was left to stand for 10 min. Then, the plate was washed 3 times with an FACS buffer, and 100 μL of secondary antibody solution (fluorescent labeled goat anti-human secondary antibody: diluted in a 1:250 ratio, 2 μg/mL, Biolegend, Cat #409304) was added. The plate was incubated at 4° C. for half an hour away from the light. A pre-cooled PBS buffer was added, and the supernatant was discarded after centrifugation at 4° C., which were repeated three times. The cells were resuspended in an FACS buffer at 200 μL/well and detected using a flow cytometer (BD FACS Calibur).

[2] = target: T1, CD79B protein on the surface of DoHH2 cells; experiment: FACS of anti-human CD79B hybridoma positive clones; assay type: binding
Description: 4) FACS screening The suspension of DoHH2 cells was centrifuged, resuspended in PBS containing 0.1% BSA, and counted. The test serum was added, and the cells were incubated at room temperature for 60 min and washed. Then Anti-Mouse IgG (Fc specific)-FITC secondary antibody was added, and the cells were incubated at room temperature for 30 min away from the light, washed three times, gently resuspended in PBS containing 0.1% BSA, and loaded on the machine for assay.
(§8) 5) Identification of hybridoma positive clones A plurality of specific antibodies against human CD79B antigen were obtained; and 17 strains of hybridomas having strongest binding force to ELISA and FACS in assays were taken for production and purification of antibodies. Specific antibodies against monkey CD79B antigen were also obtained; and 4 strains of hybridomas having strongest binding force to ELISA and FACS in assays were taken for production and purification of antibodies. Assay results of anti-monkey CD79B hybridoma positive clone cells by FACS are shown in Table 4. mIgG was used as negative control in the both assays.

[3] = target: T1, CD79B protein on the surface of DoHH2 cells; experiment: FACS of purified anti-human CD79B mouse monoclonal antibodies on DoHH2 cells; assay type: binding
Description: 3) Assay on anti-human CD79B mouse monoclonal antibodies by FACS The cell suspension of DoHH2 cells was centrifuged, resuspended in PBS containing 0.1% BSA, and counted. 100 μL of antibody diluted in a 1:10 ratio from 100 nM was added, and the cells were incubated at room temperature for 1 h and washed three times. Then Anti-Mouse IgG (Fc specific)-FITC secondary antibody was added, and the cells were incubated at room temperature for 30 min away from the light, washed three times, gently resuspended in PBS containing 0.1% BSA, and loaded on the machine for assay. […] The specific data are shown in FIGS. 9A and 9B, in which hIgG1 is a negative control antibody and SN8 is a positive control antibody. SN8 is an antibody (reference sequence source: US20170362318A) used in the antibody-drug conjugate polatuzumab vedotin developed by Roche pharmaceutical. Polatuzumab vedotin has been approved by the FDA for marketing.

human CD79B [4] = target: T2, human CD79B; experiment: ELISA of anti-human CD79B hybridoma positive clones; assay type: binding; set-up: the extracellular region (ECD) of human CD79B comprises 159 amino acids (Met1-Asp159); made in house; host or cells: 293F cells; details: hybridoma cell supernatant, read at 450 nm
Description: (§9) 3) ELISA screening A 96-well plate was coated with 1 μg/mL antigen at 50 μL/well and incubated in a refrigerator at 4° C. overnight. The next day, the coated antigen plate was washed once (washing solution: 1×PBST). After washing, the plate was blocked with 1% BSA blocking solution prepared in 1×PBST at 37° C. for 1 h. After washing the plate 3 times with 1×PBST, 50 μL of the test cell supernatant was added, and the plate was incubated in an incubator at 37° C. for 1 h. After washing the plate 3 times with 1×PBST, 100 μL of goat anti-mouse secondary antibody diluted in a 1:5000 ratio was added, and the plate was incubated in an incubator at 37° C. for 0.5 h. After washing the plate, TMB color development solutions A and B were mixed in a 1:1 ratio for color development. 15 min later, the color development reaction was stopped with 1 N hydrochloric acid. […] value was read at 450 nm on a Spectra Max M5 microplate reader.
as §8

human CD79B [5] = target: T2, human CD79B; experiment: ELISA of purified anti-human CD79B mouse monoclonal antibodies; assay type: binding; set-up: the extracellular region (ECD) of human CD79B comprises 159 amino acids (Met1-Asp159); made in house; host or cells: 293F cells; details: purified antibodies diluted 1:10 from 100 nM; FIG. 8
Description: as §9, with “2) Assay on anti-human CD79B mouse monoclonal antibodies by” for “3)”, “ELISA” for “ELISA screening”, “antibody diluted in a 1:10 ratio from 100 nM” for “the test cell supernatant”

Molecule	IC50 (SKBR3) [nM]	Maximum inhibition (%) (SKBR3)	IC50 (MDA-MB-468) [nM]	Maximum inhibition (%) (MDA-MB-468)	Maximum inhibition (%) (A549)	IC50 (A549) [nM]	endocytosis by DOHH-2 cells at 4° C. ([1]; 20 μg/mL antibody, incubation at 4° C.)	endocytosis by DOHH-2 cells at 37° C. after 1 h ([1]; 20 μg/mL antibody, incubation at 37° C., 1 h)	endocytosis, overall judgement ([1]; DOHH-2 cells)	time at which antibody endocytosis reaches a maximum ([1]; incubation at 37° C.) [h]	Mean fluorescence value [2]	FACS binding force ([3]; antibodies diluted 1:10 from 100 nM, FIGS. 9A, 9B)	FACS binding force compared with SN8 ([3]; positive control antibody SN8)	Results (OD450) (human CD79B [4])	ELISA binding force (human CD79B [5])
C=C1C[C@@H]2CC[C@@]34C[C@H]5O[C@H]6[C@@H](O3)[C@H]3O[C@H](CC[C@@H]3O[C@H]6[C@H]5O4)CC(=O)C[C@@H]3[C@@H](OC)[C@@H](C[C@H](O)CNC)O[C@H]3C[C@H]3O[C@@H](CC[C@@H]1O2)C[C@@H](C)C3=C [E-305]	0.571	96.42	1.17	88.53	61.27	2.1									
SN8 [reference compound]							cannot be endocytosed by DOHH-2 cells	most of the antibodies are already endocytosed by DOHH-2 cells	good endocytosis	4					
C=C1C[C@@H]2CC[C@@]34C[C@H]5O[C@H]6[C@@H](O3)[C@H]3O[C@H](CC[C@@H]3O[C@H]6[C@H]5O4)CC(=O)C[C@@H]3[C@@H](OC)[C@@H](C[C@@H](CNC)OC)O[C@H]3C[C@H]3O[C@@H](CC[C@@H]1O2)C[C@@H](C)C3=C [D-2]	1.09	96.85	1.88	89.43	62.09	3.08									
C=C1C[C@@H]2CC[C@@]34C[C@H]5O[C@H]6[C@@H](O3)[C@H]3O[C@H](CC[C@@H]3O[C@H]6[C@H]5O4)CC(=O)C[C@@H]3[C@@H](OC)[C@@H](C[C@H](O)CO)O[C@H]3C[C@H]3O[C@@H](CC[C@@H]1O2)C[C@@H](C)C3=C [E1-30]	0.166	96.15	0.36	90.49	62.46	0.781									
mAb015: anti-human CD79B mouse monoclonal antibody, clone 83B2G2; VH SEQ ID NO: 3, VL SEQ ID NO: 4 (antibody, listed as Mus musculus, V domains shown) VH: QVQLQQSGAELARPGASVKLSCKASGSSFTSYGINWVKQRTGQGLEWIGEIFPRSGNTYYNEKFEGKATLTADKSSSTAYMELRSLTSEDSAVYFCAKGDLGDFDYWGQGTTLTVSS VL: DFLMTQTPLSLPVRLGDQASISCRSSQSIVHSDGNTYFEWYLQKPGQSPKLLIYKVSNRFSGVPDRFSGSGSGTDFTLKISRVEAEDLGVYYCFQGSHVPWTFGGGTKLEIK											10036	strongest FACS binding force	superior binding force to SN8	3.41	strongest ELISA binding force

Source: patent publication US12642862B2, “Anti-CD79B antibody-drug conjugate, and preparation method therefor and pharmaceutical use thereof” (TUOJIE BIOTECH (SHANGHAI) CO., LTD., priority 2020, dated 2026)
